ChEMBL document CHEMBL1125807, “Synthesis and preliminary evaluation of (+)-CBI-indole2: an enhanced functional analog of (+)-CC-1065” (Bioorg Med Chem Lett, 1991)
Converted amounts (≈) assume the structure as drawn. “And” between values parts separate entries of the source, which are not always exact repeats. Equal entries are not always repeated.

Columns and labels:
[1] = Relative stability based on solvolysis studies; format: physicochemical
Nucleic Acid [2] = test: Relative fist order rate constant for alkylation at the high affinity site of DNA; format: functional
Nucleic Acid [3] = test: Relative intensity of DNA alkylation at the high affinity alkylation site [5'-d(AATB)-3'] within w794 DNA at 4 degrees C, 24 h; format: functional
Nucleic Acid [4] = test: Percent alkylation at the high affinity alkylation site [5'-d(AATB)-3'] within w794 DNA at 4 degrees C, 24 h; range is 5-10 %; format: functional
L1210 [5] = test: Relative IC50 for in vitro cytotoxic activity against L1210 mouse lymphocytic leukemia; format: functional
L1210 [6] = test: Inhibitory concentration required for 50% in vitro cytotoxic activity was determined against L1210 mouse lymphocytic leukemia at 40 pM; format: functional, cell-based
Mus musculus [7] = test: In vivo antitumor activity of 10 ug/kg.day subcutaneously administered compound against Ip implanted L1210 tumor in mouse; format: functional
Mus musculus [8] = test: In vivo antitumor activity of 19 ug/kg.day subcutaneously administered compound against Ip implanted L1210 tumor in mouse; format: functional
Mus musculus [9] = test: In vivo antitumor activity of 29 ug/kg.day subcutaneously administered compound against Ip implanted L1210 tumor in mouse; format: functional
Mus musculus [10] = test: In vivo antitumor activity of 39 ug/kg.day subcutaneously administered compound against Ip implanted L1210 tumor in mouse; format: functional
Mus musculus [11] = test: In vivo antitumor activity of 75 ug/kg.day subcutaneously administered compound against P388 leukemia in mouse; format: functional
Mus musculus [12] = species: Mus musculus; test: Relative cytotoxic activity against mouse L1210 leukemia; format: functional
[13] = Half-life was determined; format: ADME; conditions: human
Nucleic Acid [14] = test: Percent alkylation at the high affinity alkylation site [5'-d(AATB)-3'] within w794 DNA at 4 degrees C, 24 h; format: functional
L1210 [15] = test: Inhibitory concentration required for 50% in vitro cytotoxic activity was determined against L1210 mouse lymphocytic leukemia at 10 pM; format: functional, cell-based
Mus musculus [16] = test: Survivors at day 18 at 29 ug/kg.day; value is given as 1/6 and no evidence of residual tumor found.; format: functional, organism-based
Mus musculus [17] = test: Survivors at day 18 at 39 ug/kg.day; value is given as 4/6 and no evidence of residual tumor found.; format: functional, organism-based
Mus musculus [18] = test: In vivo antitumor activity of 5 ug/kg.day subcutaneously administered compound against Ip implanted L1210 tumor in mouse; format: functional

Cc1c[nH]c2c1C13CC1CN(C(=O)c1cc4cc(NC(=O)c5cc6ccccc6[nH]5)ccc4[nH]1)C3=CC2=O (single isomer, unassigned; (+))
Relative stability [1]: 0.27 | rel k (Nucleic Acid [2]): 0.07 | Relative intensity (Nucleic Acid [3]): 0.1 | DNA alkylation (Nucleic Acid [4]): 10% | Cytotoxic activity (L1210 [5]): 0.25 | IC50 (L1210 [6]): 0.02 ng/mL (≈ 0.0399 nM) | T/C (Mus musculus [7]): 114 and 133 | T/C (Mus musculus [8]): 113 | T/C (Mus musculus [9]): 118 | T/C (Mus musculus [10]): 129 | T/C (Mus musculus [11]): 259 | Relative cytotoxic activity (Mus musculus [12]): 0.25 | half-life [13]: 36.7 h

O=C(Nc1ccc2[nH]c(C(=O)N3C[C@H]4C[C@@]45C3=CC(=O)c3ccccc35)cc2c1)c1cc2ccccc2[nH]1
Relative stability [1]: 1 | rel k (Nucleic Acid [2]): 1 | Relative intensity (Nucleic Acid [3]): 1 | DNA alkylation (Nucleic Acid [14]): 93% | Cytotoxic activity (L1210 [5]): 1 | IC50 (L1210 [15]): 0.005 ng/mL (≈ 0.01 nM) | Survivors (Mus musculus [16]): No evidence of residual tumor found | Survivors (Mus musculus [17]): No evidence of residual tumor found | T/C (Mus musculus [7]): 156 | T/C (Mus musculus [8]): 162 | T/C (Mus musculus [9]): >175 | T/C (Mus musculus [10]): >200 | T/C (Mus musculus [18]): 120 | Relative cytotoxic activity (Mus musculus [12]): 1 | half-life [13]: 133 h
